Our source for the IC50 and inhibition values is patent publication US20080171737A1 (Wyeth, priority 2006, published 2008).

pIC50: −log10 of the molar value.

In one assay the target is T1, human hNET (Homo sapiens, UniProt P23975).
T1 construct: expressed in transfected cells; host or cells: MDCK-Net6 (MDCK cells stably transfected with hNET)
T1 sequence (P23975 whole entry): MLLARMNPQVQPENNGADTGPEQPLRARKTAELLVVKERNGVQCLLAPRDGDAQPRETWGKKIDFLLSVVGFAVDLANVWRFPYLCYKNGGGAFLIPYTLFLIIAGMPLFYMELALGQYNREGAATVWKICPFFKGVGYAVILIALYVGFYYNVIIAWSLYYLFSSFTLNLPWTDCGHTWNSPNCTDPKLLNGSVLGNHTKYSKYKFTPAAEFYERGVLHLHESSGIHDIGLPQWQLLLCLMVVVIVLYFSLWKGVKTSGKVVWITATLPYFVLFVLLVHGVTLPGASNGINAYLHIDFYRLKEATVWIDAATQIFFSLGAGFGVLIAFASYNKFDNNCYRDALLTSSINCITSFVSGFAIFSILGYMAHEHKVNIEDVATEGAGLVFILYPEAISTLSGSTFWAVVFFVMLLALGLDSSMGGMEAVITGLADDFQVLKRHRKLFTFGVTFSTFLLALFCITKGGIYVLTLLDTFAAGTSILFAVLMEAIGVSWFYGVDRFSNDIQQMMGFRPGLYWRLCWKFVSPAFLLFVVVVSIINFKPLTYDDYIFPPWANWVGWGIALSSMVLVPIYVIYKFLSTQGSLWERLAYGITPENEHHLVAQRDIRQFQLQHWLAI
Description: Functional norepinephrine reuptake assay, Procedure B (6,000 cells/well). The class given is cell-based. Conditions: MDCK-Net6 cells, 6,000 cells/well, 16 nM 3H-norepinephrine; read-out: Procedure B hNET uptake IC50. As for the experimental part: For screening, 25 μl aliquots of compound solution at a 1 μM or 10 μM final concentration was delivered directly to cells.
For IC50 determinations, stock compounds were prepared at 10 mM from powder. The stock solution was diluted according to compound testing range. […] On the day of assay, 25 μl of compound solution at the specified concentrations were added to the plates containing cells. A DMSO stock of desipramine was prepared at 10 mM in DMSO and diluted for a final concentration of 20 μM to determine the non-specific reuptake.
MDCK-Net6 cells, stably transfected with human hNET (Pacholczyk, 1991), were maintained in growth media [high glucose DMEM (Gibco Cat. 11995), 10% FBS (dialyzed, heat-inactivated, Sigma, dialysed, heat inactivated, Lot# K0922 or equivalent) 1xPen/Strep, and 500 μg/ml G418 (Gibco Cat. 10131)]. Cells were plated at 300,000/T75 flask and cells split twice weekly.
Cells were plated at 50,000 cells/well (Procedure A) or 6,000 cells/well (Procedure B) on day 1 in BD Falcon Microtest 96-well sterile cell culture plates, Optilux White/Clear Bottom TC plate (VWR; # 62406-466 or equivalent) in growth media and maintained in a cell incubator (37° C., 5% CO2). On Day 2, cells were removed from the cell incubator and the growth media is replaced by 200 μl of assay buffer (25 mm HEPES 120 mM NaCL; 5 mM KCl; 2.5 mM CaCl2; 1.2 mM MgSO4; 2 mg/ml glucose (pH 7.4, 37° C.)) containing 0.2 mg/ml ascorbic acid and 1 μM parglyine. For screening, 25 μl of compound in 4% DMSO was added directly to each well and the plate was incubated for 5 minutes (37° C.). […] The reaction is aspirated from the plate and the cells washed with 250 μl of 50 mM Tris Buffer (4° C.). The plates were left to dry for 1 hour. The cells were lysed using 0.25 M NaOH solution then placed on a shake table and vigorously shaken for 10 minutes. After cell lysis, 100 μl of Microscint 20 (PerkinElmer; #87-051101) was added to the plates and the plates were sealed with film tape and replaced on the shake table for a minimum of 10 minutes. The plates were counted in a TopCount counter (PerkinElmer).
% inhibition=[1−((mean cpm test compound wells−mean cpm non-specific wells)/(mean cpm control wells−mean cpm non-specific wells))]×100
For IC50 determination, raw cpm values were generated in a data file from the TopCount counter. The data was organized using the Microsoft Excel and transferred into PRIZM graphing and statistical program, which calculated the estimated IC50 value. Calculation of IC50 values was made using non-linear regression analysis with a sigmoidal dose response with variable slope. The statistical program used wells containing ^3H norepinephrine only as the maximal NE reuptake determinant and wells containing ^3H norepinephrine plus 20 μM desipramine (AHR-9543) as the minimal NE reuptake determinant (non-specific determinant). Estimation of the IC50 value was completed on a log scale and the line was fit between the maximal and minimal NE reuptake values.
As a reminder, the pIC50 is the IC50 on a negative log10 scale, so that one unit is a factor of ten. As to `CNCCC[C@H]1Cc2cc(F)ccc2N(c2ccccc2Cl)S1(=O)=O` (single isomer, unassigned) [Example 158], the pIC50 was 6.84.
Consider `CNCCC[C@@H]1Cc2cc(F)ccc2N(c2ccccc2Cl)S1(=O)=O` (single isomer, unassigned) [Example 159], for which the pIC50 was 6.88.
With `CNCCC[C@H]1Cc2cc(F)ccc2N(c2ccccc2C)S1(=O)=O` (single isomer, unassigned) [Example 161], the negative-log IC50 (pIC50) was 6.84.
Same read-out and setting: with `CNCCC[C@@H]1Cc2cc(F)ccc2N(c2ccccc2C)S1(=O)=O` (single isomer, unassigned) [Example 162] the figure was 6.87.
`CNCCC[C@H]1Cc2cc(F)ccc2N(c2ccccc2C#N)S1(=O)=O` (single isomer, unassigned) [Example 164]: the negative-log IC50 (pIC50) is 6.54.
Consider `CNCCC[C@@H]1Cc2cc(F)ccc2N(c2ccccc2C#N)S1(=O)=O` (single isomer, unassigned) [Example 165], for which the pIC50 was 6.69.
Regarding `CNCCC[C@H]1Cc2cc(F)ccc2N(c2ccccc2OC)S1(=O)=O` (single isomer, unassigned) [Example 167], the negative-log IC50 (pIC50) is 6.23.
As to `CNCCC[C@@H]1Cc2cc(F)ccc2N(c2ccccc2OC)S1(=O)=O` (single isomer, unassigned) [Example 168], the negative-log IC50 (pIC50) was 6.47.
Turning to `CNCCC[C@H]1Cc2cc(F)ccc2N(c2ccc(F)cc2C)S1(=O)=O` (single isomer, unassigned) [Example 170], the pIC50 is 6.46.
Same read-out and setting: the same measure for `CNCCC[C@@H]1Cc2cc(F)ccc2N(c2ccc(F)cc2C)S1(=O)=O` (single isomer, unassigned) [Example 171]: 6.49; for `CNCCC[C@H]1Cc2cc(Cl)ccc2N(c2ccccc2F)S1(=O)=O` (single isomer, unassigned) [Example 176]: 7.70; for `CNCCC[C@@H]1Cc2cc(Cl)ccc2N(c2ccccc2F)S1(=O)=O` (single isomer, unassigned) [Example 177]: 7.37.
On the same count and under the same terms, with `CNCCCC1Oc2ccccc2N(c2ccc(F)cc2)S1(=O)=O` (stereo not shown) [Example 15, 3-[1-(4-fluorophenyl)-2,2-dioxido-1H-4,2,1-benzoxathiazin-3-yl]-N-methylpropan-1-amine] the figure was 6.31.
For `CNCCCC1Oc2ccccc2N(c2cccc(C)c2)S1(=O)=O` (stereo not shown) [Example 16, N-methyl-3-[1-(3-methylphenyl)-2,2-dioxido-1H-4,2,1-benzoxathiazin-3-yl]propan-1-amine], the pIC50 was 6.44.
With `CNCCCC1Oc2ccccc2N(c2ccc(C)cc2)S1(=O)=O` (stereo not shown) [Example 17, N-methyl-3-[1-(4-methylphenyl)-2,2-dioxido-1H-4,2,1-benzoxathiazin-3-yl]propan-1-amine], the pIC50 is 7.58.
Same read-out and setting: with `CNCCCC1Oc2ccccc2N(c2cccc(OC)c2)S1(=O)=O` (stereo not shown) [Example 18, 3-[1-(3-methoxyphenyl)-2,2-dioxido-1H-4,2,1-benzoxathiazin-3-yl]-N-methylpropan-1-amine] the figure was 6.45; with `CNCCCC1Oc2ccccc2N(c2ccc(OC)cc2)S1(=O)=O` (stereo not shown) [Example 19, 3-[1-(4-methoxyphenyl)-2,2-dioxido-1H-4,2,1-benzoxathiazin-3-yl]-N-methylpropan-1-amine], 5.92; with `CNCCCC1Oc2ccccc2N(c2cccc(F)c2)S1(=O)=O` (stereo not shown) [Example 20, 3-[1-(3-fluorophenyl)-2,2-dioxido-1H-4,2,1-benzoxathiazin-3-yl]-N-methylpropan-1-amine], 6.97.
For the compound `CNCCCC1Oc2ccccc2N(c2ccc3ccccc3c2)S1(=O)=O` (stereo not shown) [Example 21, N-methyl-3-[1-(2-naphthyl)-2,2-dioxido-1H-4,2,1-benzoxathiazin-3-yl]propan-1-amine], the negative-log IC50 (pIC50) is 5.34.
Turning to `CNCCCC1Oc2ccccc2N(c2cc(C)cc(C)c2)S1(=O)=O` (stereo not shown) [Example 22, 3-[1-(3,5-dimethylphenyl)-2,2-dioxido-1H-4,2,1-benzoxathiazin-3-yl]-N-methylpropan-1-amine], the pIC50 was 5.38.
`CCNCCC1Oc2ccccc2N(c2ccccc2)S1(=O)=O` (stereo not shown) [Example 23, 2-(2,2-dioxido-1-phenyl-1H-4,2,1-benzoxathiazin-3-yl)-N-ethylethanamine]: the pIC50 is 6.61.
On to `NCCC1Oc2ccccc2N(c2ccccc2)S1(=O)=O` (stereo not shown) [Example 24, 2-(2,2-dioxido-1-phenyl-1H-4,2,1-benzoxathiazin-3-yl)ethanamine], for which the negative-log IC50 (pIC50) is 6.23.
For the compound `CNCCC1Oc2ccccc2N(c2ccccc2)S1(=O)=O` (stereo not shown) [Example 25, 2-(2,2-dioxido-1-phenyl-1H-4,2,1-benzoxathiazin-3-yl)-N-methylethanamine], the pIC50 was 6.79.
Consider `CN(C)CCC1Oc2ccccc2N(c2ccccc2)S1(=O)=O` (stereo not shown) [Example 26, 2-(2,2-dioxido-1-phenyl-1H-4,2,1-benzoxathiazin-3-yl)-N,N-dimethylethanamine], for which the pIC50 is 7.01.
Consider `CCCNCCC1Oc2ccccc2N(c2ccccc2)S1(=O)=O` (stereo not shown) [Example 27, N-[2-(2,2-dioxido-1-phenyl-1H-4,2,1-benzoxathiazin-3-yl)ethyl]propan-1-amine], for which the pIC50 is 5.36.
On to `CC(C)CNCCC1Oc2ccccc2N(c2ccccc2)S1(=O)=O` (stereo not shown) [Example 28, N-[2-(2,2-dioxido-1-phenyl-1H-4,2,1-benzoxathiazin-3-yl)ethyl]-2-methylpropan-1-amine], for which the pIC50 was 5.75.
Regarding `O=S1(=O)C(CCN2CCCC2)Oc2ccccc2N1c1ccccc1` (stereo not shown) [Example 29, 1-phenyl-3-(2-pyrrolidin-1-ylethyl)-1H-4,2,1-benzoxathiazine 2,2-dioxide], the negative logarithm of the IC50 (pIC50) is 5.79.
As for `CCCCNCCC1Oc2ccccc2N(c2ccccc2)S1(=O)=O` (stereo not shown) [Example 31, N-[2-(2,2-dioxido-1-phenyl-1H-4,2,1-benzoxathiazin-3-yl)ethyl]butan-1-amine], the pIC50 was 5.78.
For `NCCCC1Oc2ccccc2N(c2ccccc2)S1(=O)=O` (stereo not shown) [Example 33, 3-(2,2-dioxido-1-phenyl-1H-4,2,1-benzoxathiazin-3-yl)propan-1-amine], the pIC50 is 6.22.
Same read-out and setting: the same measure for `CCNCCCC1Oc2ccccc2N(c2ccccc2)S1(=O)=O` (stereo not shown) [Example 34, 3-(2,2-dioxido-1-phenyl-1H-4,2,1-benzoxathiazin-3-yl)-N-ethylpropan-1-amine]: 5.59.
Turning to `CCCNCCCC1Oc2ccccc2N(c2ccccc2)S1(=O)=O` (stereo not shown) [Example 35, 3-(2,2-dioxido-1-phenyl-1H-4,2,1-benzoxathiazin-3-yl)-N-propylpropan-1-amine], the negative-log IC50 (pIC50) is 5.29.

The assay is the same for the next values; noted with them: MDCK-Net6 cells, 6,000 cells/well; Conc 6000 nM (6 μM); read-out: Procedure B hNET uptake (% inhibition).
The inhibition is how much of the control response was suppressed. Take `CN1CCN(CCC2Oc3ccccc3N(c3ccccc3)S2(=O)=O)CC1` (stereo not shown) [Example 30, 3-[2-(4-methylpiperazin-1-yl)ethyl]-1-phenyl-1H-4,2,1-benzoxathiazine 2,2-dioxide]: the inhibition at 6 µM is 35%.
For `O=S1(=O)C(CCNC2CCC2)Oc2ccccc2N1c1ccccc1` (stereo not shown) [Example 32, N-[2-(2,2-dioxido-1-phenyl-1H-4,2,1-benzoxathiazin-3-yl)ethyl]cyclobutanamine], the inhibition at 6 µM came out at 54%.
As for `CCCCNCCCC1Oc2ccccc2N(c2ccccc2)S1(=O)=O` (stereo not shown) [Example 36, N-[3-(2,2-dioxido-1-phenyl-1H-4,2,1-benzoxathiazin-3-yl)propyl]butan-1-amine], the inhibition at 6 µM is 57%.
On to `CC(C)NCCCC1Oc2ccccc2N(c2ccccc2)S1(=O)=O` (stereo not shown) [Example 37, 3-(2,2-dioxido-1-phenyl-1H-4,2,1-benzoxathiazin-3-yl)-N-isopropylpropan-1-amine], for which the inhibition at 6 µM was determined as 15%.
On to `CC(C)CNCCCC1Oc2ccccc2N(c2ccccc2)S1(=O)=O` (stereo not shown) [Example 38, N-[3-(2,2-dioxido-1-phenyl-1H-4,2,1-benzoxathiazin-3-yl)propyl]-2-methylpropan-1-amine], for which the inhibition at 6 µM was found to be 63%.
Still for that read-out and setting: the same measure for `O=S1(=O)C(CCCNCCCO)Oc2ccccc2N1c1ccccc1` (stereo not shown) [Example 39, 3-{[3-(2,2-dioxido-1-phenyl-1H-4,2,1-benzoxathiazin-3-yl)propyl]amino}propan-1-ol]: 32%.
